# Activity calls are given as the source filed them. The rule behind the calls is not given here.
# System: not listed separately
# Test: Solubility in methanol assessed per 100 ml
# Assay type: physicochemical
# Settings: not given
row,Structure (SMILES),solubility [g]
1,Cl.O=C(Nc1ccccc1C(=O)NCCN1CCOCC1)c1ccccc1F,0.59
2,O=C(Nc1ccccc1C(=O)NCCN1CCOCC1)c1ccccc1F [listing 1 of 2 here],0.2

# System: HEK293
# Test: Toxicity against HEK293 cells assessed as reduction in cell viability at 10 uM incubated for 24 hrs by cell titre blue viability assay relative to control
# Assay type: cell-based
# Settings: human, hek293, 24 h
row,Structure (SMILES),Activity [%]
1,O=C(NCCN1CCOCC1)c1ccccc1NC(=O)c1c(F)cccc1F,> 90
2,O=C(Nc1ccccc1C(=O)NCN1CCCC1)c1ccccc1F,> 70
3,COc1cc(OC)cc(C(=O)Nc2ccccc2C(=O)NCCN2CCOCC2)c1,> 90
4,Cc1cccc(C(=O)NCCN2CCOCC2)c1NC(=O)c1ccccc1F,> 70
5,O=C(Nc1ccccc1C(=O)NCCCN1CCOCC1)c1ccccc1F,> 70
6,O=C(Nc1ccccc1C(=O)NCCc1ccccn1)c1ccccc1F,> 70
7,COc1ccc(C(=O)Nc2ccccc2C(=O)NCCN2CCOCC2)cc1OC,> 90
8,COc1ccc(C(=O)Nc2ccccc2C(=O)NCCN2CCOCC2)cc1,> 70
9,COc1cccc(C(=O)Nc2ccccc2C(=O)NCCN2CCOCC2)c1,> 70
10,O=C(NCCN1CCOCC1)c1ccccc1NC(=O)c1ccccc1[N+](=O)[O-],> 70
11,NCCNC(=O)c1ccccc1NC(=O)c1ccccc1F,> 70
12,Cc1ccccc1C(=O)Nc1ccccc1C(=O)NCCN1CCOCC1,> 70
13,O=C(Nc1cccc(Cl)c1C(=O)NCCN1CCOCC1)c1ccccc1F,> 70
14,O=C(Nc1ccccc1C(=O)NCCN1CCOCC1)c1cc(F)cc(F)c1,> 90
15,O=C(Nc1ccccc1C(=O)NCCN1CCCCC1)c1ccccc1F,> 70
16,COc1cccc(C(=O)NCCN2CCOCC2)c1NC(=O)c1ccccc1F,> 70
17,O=C(Nc1ccccc1C(=O)NCCN1CCOCC1)c1ccc([N+](=O)[O-])cc1,> 70
18,COc1cc(C(=O)Nc2ccccc2C(=O)NCCN2CCOCC2)cc(OC)c1OC,> 90
19,O=C(Nc1ccccc1C(=O)NCCN1CCOCC1)c1ccc(F)cc1F,> 90
20,O=C(Nc1ccccc1C(=O)NCCN1CCOCC1)c1ccc(F)cc1,> 70
21,O=C(Nc1ccccc1C(=O)NCCN1CCOCC1)c1ccccc1F [listing 1 of 2 here],> 70

# System: not listed separately
# Test: Solubility in dichloromethane assessed per 100 ml
# Assay type: physicochemical
# Settings: not given
row,Structure (SMILES),solubility [g]
1,Cl.O=C(Nc1ccccc1C(=O)NCCN1CCOCC1)c1ccccc1F,0.9
2,O=C(Nc1ccccc1C(=O)NCCN1CCOCC1)c1ccccc1F [listing 1 of 2 here],2.91

# Molecular target: T1, B-cell lymphoma 3 protein (Homo sapiens) (UniProt P20749)
# T1 sequence (whole entry): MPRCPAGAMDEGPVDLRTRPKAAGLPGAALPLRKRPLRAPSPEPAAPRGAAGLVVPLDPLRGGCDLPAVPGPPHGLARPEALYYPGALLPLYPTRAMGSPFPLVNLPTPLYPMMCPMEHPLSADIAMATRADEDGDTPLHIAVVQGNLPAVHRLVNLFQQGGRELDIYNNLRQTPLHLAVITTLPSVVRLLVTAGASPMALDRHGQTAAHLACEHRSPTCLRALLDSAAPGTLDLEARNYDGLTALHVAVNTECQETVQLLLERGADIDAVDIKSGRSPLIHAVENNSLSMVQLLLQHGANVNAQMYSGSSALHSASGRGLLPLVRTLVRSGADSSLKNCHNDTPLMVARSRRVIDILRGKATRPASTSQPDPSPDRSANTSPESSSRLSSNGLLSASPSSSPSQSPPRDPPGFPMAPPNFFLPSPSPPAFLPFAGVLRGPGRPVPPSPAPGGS
# Test: Inhibition of Bcl-3 in human MDA-MB-231 cells assessed as reduction in NF-kappaB signalling at 1 uM incubated for 24 hrs by NF-kappaB promoter dependent luciferase reporter gene assay
# Assay type: cell-based
# Settings: not given
row,Structure (SMILES),inhibition
1,O=C(Nc1ccc(I)cc1C(=O)NCCN1CCOCC1)c1ccccc1F,Active
2,O=C(Nc1ccccc1C(=O)NCCCN1CCOCC1)c1ccccc1F,Active
3,COc1ccc(C(=O)Nc2ccccc2C(=O)NCCN2CCOCC2)cc1,Active
4,O=C(Nc1ccccc1C(=O)NCCN1CCCCC1)c1ccccc1F,Active
5,O=C(Nc1ccccc1C(=O)NCCN1CCOCC1)c1ccccc1F [listing 2 of 2 here],Active

# System: MDA-MB-231
# Test: Inhibition of cell migration of human MDA-MB-231 cells overexpressing Bcl-3 assessed as reduction in cell motility incubated for 24 hrs by Boyden chamber assay
# Assay type: functional, cell-based
# Settings: MDA-MB-231, 24 h
row,Structure (SMILES),IC50 [µM]
1,O=C(Nc1ccccc1C(=O)NCN1CCCC1)c1ccccc1F,3.65

# System: not listed separately
# Test: Solubility in ethyl acetate assessed per 100 ml
# Assay type: physicochemical
# Settings: not given
row,Structure (SMILES),solubility [g]
1,Cl.O=C(Nc1ccccc1C(=O)NCCN1CCOCC1)c1ccccc1F,0.02
2,O=C(Nc1ccccc1C(=O)NCCN1CCOCC1)c1ccccc1F [listing 1 of 2 here],0.34

# System: MDA-MB-231
# Test: Toxicity against human MDA-MB-231 cells assessed as reduction in cell viability at 10 uM incubated for 24 hrs by cell titre blue viability assay relative to control
# Assay type: cell-based
# Settings: mda-mb-231, 24 h
row,Structure (SMILES),Activity [%]
1,O=C(NCCN1CCOCC1)c1ccccc1NC(=O)c1c(F)cccc1F,> 90
2,O=C(Nc1ccccc1C(=O)NCN1CCCC1)c1ccccc1F,> 70
3,COc1cc(OC)cc(C(=O)Nc2ccccc2C(=O)NCCN2CCOCC2)c1,> 90
4,Cc1cccc(C(=O)NCCN2CCOCC2)c1NC(=O)c1ccccc1F,> 70
5,O=C(Nc1ccccc1C(=O)NCCCN1CCOCC1)c1ccccc1F,> 70
6,O=C(Nc1ccccc1C(=O)NCCc1ccccn1)c1ccccc1F,> 70
7,COc1ccc(C(=O)Nc2ccccc2C(=O)NCCN2CCOCC2)cc1OC,> 90
8,COc1ccc(C(=O)Nc2ccccc2C(=O)NCCN2CCOCC2)cc1,> 70
9,COc1cccc(C(=O)Nc2ccccc2C(=O)NCCN2CCOCC2)c1,> 70
10,O=C(NCCN1CCOCC1)c1ccccc1NC(=O)c1ccccc1[N+](=O)[O-],> 70
11,NCCNC(=O)c1ccccc1NC(=O)c1ccccc1F,> 70
12,Cc1ccccc1C(=O)Nc1ccccc1C(=O)NCCN1CCOCC1,> 70
13,O=C(Nc1cccc(Cl)c1C(=O)NCCN1CCOCC1)c1ccccc1F,> 70
14,O=C(Nc1ccccc1C(=O)NCCN1CCOCC1)c1cc(F)cc(F)c1,> 90
15,O=C(Nc1ccccc1C(=O)NCCN1CCCCC1)c1ccccc1F,> 70
16,COc1cccc(C(=O)NCCN2CCOCC2)c1NC(=O)c1ccccc1F,> 70
17,O=C(Nc1ccccc1C(=O)NCCN1CCOCC1)c1ccc([N+](=O)[O-])cc1,> 70
18,COc1cc(C(=O)Nc2ccccc2C(=O)NCCN2CCOCC2)cc(OC)c1OC,> 90
19,O=C(Nc1ccccc1C(=O)NCCN1CCOCC1)c1ccc(F)cc1F,> 90
20,O=C(Nc1ccccc1C(=O)NCCN1CCOCC1)c1ccc(F)cc1,> 70
21,O=C(Nc1ccccc1C(=O)NCCN1CCOCC1)c1ccccc1F [listing 1 of 2 here],> 70

# System: not listed separately
# Test: Solubility in diethyl ether assessed per 100 ml
# Assay type: physicochemical
# Settings: not given
row,Structure (SMILES),solubility [g]
1,Cl.O=C(Nc1ccccc1C(=O)NCCN1CCOCC1)c1ccccc1F,0.01
2,O=C(Nc1ccccc1C(=O)NCCN1CCOCC1)c1ccccc1F [listing 1 of 2 here],0.09

# System: not listed separately
# Test: Solubility in water assessed per 100 ml
# Assay type: physicochemical
# Settings: buffer
row,Structure (SMILES),solubility [g]
1,Cl.O=C(Nc1ccccc1C(=O)NCCN1CCOCC1)c1ccccc1F,0.95
2,O=C(Nc1ccccc1C(=O)NCCN1CCOCC1)c1ccccc1F [listing 1 of 2 here],< 0.01

# System: MDA-MB-231
# Test: Inhibition of cell migration of human MDA-MB-231 cells overexpressing Bcl-3 assessed as cell motility at 10 nM incubated for 24 hrs by Boyden chamber assay relative to control
# Assay type: functional
# Parameters: scale not given: the % may be the effect or the level left
# Settings: not given
row,Structure (SMILES),Activity [%]
1,COc1ccc(C(=O)Nc2ccccc2C(=O)NCCN2CCOCC2)cc1,<50

# System: not listed separately
# Test: Solubility in DMSO assessed per 100 ml
# Assay type: physicochemical
# Settings: not given
row,Structure (SMILES),solubility [g]
1,Cl.O=C(Nc1ccccc1C(=O)NCCN1CCOCC1)c1ccccc1F,< 0.01
2,O=C(Nc1ccccc1C(=O)NCCN1CCOCC1)c1ccccc1F [listing 1 of 2 here],3.71

# System: not listed separately
# Test: Solubility in ethanol assessed per 100 ml
# Assay type: physicochemical
# Settings: not given
row,Structure (SMILES),solubility [g]
1,Cl.O=C(Nc1ccccc1C(=O)NCCN1CCOCC1)c1ccccc1F,0.19
2,O=C(Nc1ccccc1C(=O)NCCN1CCOCC1)c1ccccc1F [listing 1 of 2 here],0.09
